{
  "source": "patent US20030118577A1",
  "about": "“Use of analogues of superoxide dismutase for treating hepatocellular insufficiencies” (priority 2000, published 2003)",
  "key": {"[1]": {"test_system": "hepatic impairments resulting from the administration of galactosamine-LPS", "details": "prior administration; MIESEL et al. 1995; cited from earlier work"}, "[2]": {"test_system": "hepatic impairments induced by the administration of acetaminophen or of galactosamine", "details": "simultaneous administration; EP 0333490; cited from earlier work"}, "[3]": {"test_system": "acute hepatic insufficiency induced by acetaminophen", "assay": "Survival of mice after intraperitoneal acetaminophen (acute hepatic insufficiency)", "details": "for percentage of surviving animals: Group XV: APAP 1000 mg/kg, CuDIPS 10 mg/kg (P)", "experimental": "The intraperitoneal injection of acetaminophen into mice induces a severe hepatotoxicity, the degree of which may be evaluated by the survival of the animals, measuring transaminase activities, and macroscopic and microscopic examination of the livers.\nThe acetaminophen in solution at 100 mg/ml in PBS at pH 7.4 is administered by the intraperitoneal route.\nIn a first series of experiments, a group of mice received a dose of 1000 mg/kg of acetaminophen; a second group received a dose of 1000 mg/kg of acetaminophen and a dose of 10 mg/kg of MnTBAP administered either 2 h before the acetaminophen or 6 h after; a control group received either MnTBAP alone (10 mg/kg), or PBS alone.\nThe survival of the animals is monitored for 24 hours after the administration of acetaminophen.\nThe effect of N-acetyl-L-cysteine (NAC), of CuDIPS, and of MnTBAP on the survival of mice after intraperitoneal injection of 1000 mg/kg of acetaminophen (APAP) was compared.\nMnTBAP, NAC, or CuDIPS are administered in the form of a bolus, preventively, 2 hours before (P) or, curatively, 6 hours after (C) the acetaminophen.\nThe survival of the animals is monitored for 24 hours after administration of acetaminophen."}},
  "data": [
    {"compound": "C(=NCCCCN=Cc1ccccn1)c1ccccn1.[Cu+2].[O-][Cl+3]([O-])([O-])[O-]", "note": "[CuPu(Py)2]", "values": [
      {"measurement": "hepatic impairments", "setting": "[1]", "result": "reduced"}
    ]},
    {"compound": "CuZnSOD: copper-zinc superoxide dismutases, also known by the name superoxide dismutase-1", "values": [
      {"measurement": "hepatic impairments", "setting": "[2]", "result": "reduced"}
    ]},
    {"compound": "CC(C)c1cc(C(=O)[O-])c(O)c(C(C)C)c1.CC(C)c1cc(C(=O)[O-])c(O)c(C(C)C)c1.[Cu+2]", "note": "[CuDIPS, Cu(II)-(diisopropylsalicylate)2]", "values": [
      {"measurement": "effect on survival rate, administered preventively", "setting": "[3]; APAP 1000 mg/kg, 2 hours before (P)", "result": "does not significantly increase the survival rate"},
      {"measurement": "percentage of surviving animals", "setting": "[3]; time 0 h", "result": 100, "unit": "%"},
      {"measurement": "percentage of surviving animals", "setting": "[3]; time 6 h", "result": 100, "unit": "%"},
      {"measurement": "percentage of surviving animals", "setting": "[3]; time 8 h", "result": 91.6, "unit": "%"},
      {"measurement": "percentage of surviving animals", "setting": "[3]; time 9 h", "result": 83.3, "unit": "%"},
      {"measurement": "percentage of surviving animals", "setting": "[3]; time 10 h", "result": 75, "unit": "%"},
      {"measurement": "percentage of surviving animals", "setting": "[3]; time 11 h", "result": 58.3, "unit": "%"},
      {"measurement": "percentage of surviving animals", "setting": "[3]; time 12 h", "result": 58.3, "unit": "%"},
      {"measurement": "percentage of surviving animals", "setting": "[3]; time 13 h", "result": 41.6, "unit": "%"},
      {"measurement": "percentage of surviving animals", "setting": "[3]; time 14 h", "result": 41.6, "unit": "%"},
      {"measurement": "percentage of surviving animals", "setting": "[3]; time 15 h", "result": 41.6, "unit": "%"},
      {"measurement": "percentage of surviving animals", "setting": "[3]; time 16 h", "result": 33.3, "unit": "%"},
      {"measurement": "percentage of surviving animals", "setting": "[3]; time 17 h", "result": 33.3, "unit": "%"},
      {"measurement": "percentage of surviving animals", "setting": "[3]; time 18 h", "result": 25, "unit": "%"},
      {"measurement": "percentage of surviving animals", "setting": "[3]; time 20 h", "result": 25, "unit": "%"},
      {"measurement": "percentage of surviving animals", "setting": "[3]; time 22 h", "result": 25, "unit": "%"},
      {"measurement": "percentage of surviving animals", "setting": "[3]; time 24 h", "result": 25, "unit": "%"}
    ]}
  ]
}
